These are literature values, as cited in patent publication US6046167A, “Peptide YY analogs” (University of Cincinnati, priority 1998, dated 2000).

In the data set the test system is rat small intestine. The conditions noted are these: voltage clamped preparations of rat small intestine; literature comparison.

In the case of “PYY: 36-residue peptide amide isolated originally from porcine intestine [Peptide YY]”, the antisecretory potency entry is recorded as “greater antisecretory potency than NPY”.
